# Measurements taken from US20240108610A1, “RECTAL ADMINISTRATION OF ROFLUMILAST FOR THE TREATMENT OF CROHN'S DISEASE” (King Abdulaziz University, priority 2022, published 2024).
# Marks after values point to notes of the source that are not given here.
# How the values were obtained:
# Format in all cases: in vivo, rat
# KI-67 = KI-67 immunostaining of colonic sections
# Method: (§1) Chronic colitis was induced by weekly rectal injections of increasing doses of TNBS over 6 weeks (15, 30, 45, 60, 60, and 60 mg from day 0 to day 35), as previously described (4,12). Briefly, after food deprivation for 24 h, rats were anesthetized with an intraperitoneal injection of 1% isoflurane. TNBS was dissolved in ethanol (50%) and instilled into the colon using a cannula (0.25 mL), and then the rats were held upside down for 3 min to prevent escape of the intracolonic TNBS. Roflumilast was dissolved in dimethyl sulfoxide and diluted in 0.5% carboxymethyl cellulose sodium to a final concentration of 5.0 mg·kg^−1·day^−1 as previously described (13). Five groups of rats (n=8) were established: normal control (NC group), TNBS-treated (TNBS group, positive control), and three TNBS-treated groups that received oral sulfasalazine (SS group, 500 mg/kg) (14), oral roflumilast (by gastric gavage, OR group, 5 mg/kg), or rectal roflumilast (RR group, 5 mg/kg). Treatments were administered once daily in a volume of 200 μL for 15 days starting 48 h after the induction of colitis (from day 37) (15), and the control rats received equal amounts of vehicle. At the end of the treatment period, the rats were evaluated with the colitis activity score. To detect the effects of the treatments on systemic inflammatory processes, blood was collected for measurements of the proinflammatory mediators TNF-α, IL-2, and IL-6. At the end of the 15-day treatment period, the rats were sacrificed by cervical dislocation, and the colon was isolated, cleaned of feces, and measured for weight and length. Colonic myeloperoxidase (MPO) activity and glutathione (GSH) and malonaldehyde (MDA) levels were measured. The colon was examined macroscopically for gross changes and microscopically in sections stained with hematoxylin and eosin (H&E), Masson trichrome, and Periodic Acid Schiff (PAS) stains as well as KI-67 and TNF-α immunostaining. […] This primary antibody was detected using avidin-biotin peroxidase detection solution (Dako), and the signal was visualized using diaminobenzidine. […]
# IL-2 = assay: Serum IL-2 ELISA in TNBS-induced colitis; settings: means±SE, n = 8
# Method: (§2) Chronic colitis was induced by weekly rectal injections of increasing doses of TNBS over 6 weeks (15, 30, 45, 60, 60, and 60 mg from day 0 to day 35), as previously described (4,12). Briefly, after food deprivation for 24 h, rats were anesthetized with an intraperitoneal injection of 1% isoflurane. TNBS was dissolved in ethanol (50%) and instilled into the colon using a cannula (0.25 mL), and then the rats were held upside down for 3 min to prevent escape of the intracolonic TNBS. Roflumilast was dissolved in dimethyl sulfoxide and diluted in 0.5% carboxymethyl cellulose sodium to a final concentration of 5.0 mg·kg^−1·day^−1 as previously described (13). Five groups of rats (n=8) were established: normal control (NC group), TNBS-treated (TNBS group, positive control), and three TNBS-treated groups that received oral sulfasalazine (SS group, 500 mg/kg) (14), oral roflumilast (by gastric gavage, OR group, 5 mg/kg), or rectal roflumilast (RR group, 5 mg/kg). Treatments were administered once daily in a volume of 200 μL for 15 days starting 48 h after the induction of colitis (from day 37) (15), and the control rats received equal amounts of vehicle. At the end of the treatment period, the rats were evaluated with the colitis activity score. To detect the effects of the treatments on systemic inflammatory processes, blood was collected for measurements of the proinflammatory mediators TNF-α, IL-2, and IL-6. At the end of the 15-day treatment period, the rats were sacrificed by cervical dislocation, and the colon was isolated, cleaned of feces, and measured for weight and length. Colonic myeloperoxidase (MPO) activity and glutathione (GSH) and malonaldehyde (MDA) levels were measured. The colon was examined macroscopically for gross changes and microscopically in sections stained with hematoxylin and eosin (H&E), Masson trichrome, and Periodic Acid Schiff (PAS) stains as well as KI-67 and TNF-α immunostaining. Blood was collected through cardiac puncture. The serum was obtained and stored at −80° C. until analysis. […]
# IL-6 = assay: Serum IL-6 ELISA in TNBS-induced colitis; settings: means±SE, n = 8
# Method: as §2
# TNF-α = TNF-α immunostaining of colonic sections
# Method: as §1
# [1] = oral, once daily for 15 days, sulfasalazine 500 mg/kg, roflumilast 5 mg/kg
# [2] = rectal, 5 mg/kg once daily for 15 days
# [3] = oral, once daily for 15 days, SS 500 mg/kg, OR 5 mg/kg
SMILES,KI-67 immunoexpression in the mucosa (KI-67; [1]),KI-67 immunoexpression in the mucosa (KI-67; [2]),serum level of IL-2 (IL-2; [3]),serum level of IL-2 (IL-2; [2]),serum level of IL-6 (IL-6; [3]),serum level of IL-6 (IL-6; [2]),TNF-α immunoexpression in the mucosa (TNF-α; [1]),TNF-α immunoexpression in the mucosa (TNF-α; [2])
O=C(Nc1c(Cl)cncc1Cl)c1ccc(OC(F)F)c(OCC2CC2)c1 [roflumilast],mildly positive reactions,very mild positive reactions,"302.75 ± 11.32^g, h, i pg/mL",363.87 ± 12.73^g pg/mL,"21.85 ± 1.00^j, k, l pg/mL","28.93 ± 0.50^j, k pg/mL",moderately positive reactions,strong positive reactions
O=C(O)c1cc(/N=N/c2ccc(S(=O)(=O)Nc3ccccn3)cc2)ccc1O [sulfasalazine],moderately positive reactions,,257.97 ± 7.72^g pg/mL,,"16.14 ± 1.13^k, m pg/mL",,very faint positive reactions,
